Patent US20230058189A1, “QUINOLIN-4-ONE AND 4(1H)-CINNOLINONE COMPOUNDS AND METHODS OF USING SAME” (Frequency Therapeutics, Inc., priority 2019, published 2023)
In brackets after ≈: the same amount, converted by molar mass.

Experiments:
[1] = Thermodynamic aqueous solubility at pH 7.4; format: physicochemical; settings: aqueous buffer, thermodynamic from solid, phosphate buffer pH 7.4, 25° C., approximate values, read-out: Concentration (thermodynamic aqueous solubility)
Method: The aqueous thermodynamic solubilities of the compounds of the present disclosure were measured at pH 7.4.
Determining suitability for use of a compound, e.g., as a therapeutic agent can include determining the thermodynamic solubility of the compound. An example of this determination follows: Accurately weigh about 1 mg of the powder of each compound into a glass insert vial and phosphate buffer into each vial of a capless Solubility Sample plate with the volume of 1 mL per mg. Next, add one stir stick to each vial and seal with a molded PTDE/SIL 96-Well Plate Cover. Transfer the Solubility Sample plate to an Eppendorf Thermomixer Comfort plate shaker and shake the plate at 25° C. at 1,100 rpm for 24 hours. At the end of the incubation, open the cover and remove the stir sticks using a big magnet and transfer the samples from the Solubility Sample plate into the filter plate. Using the vacuum manifold, all the samples were filtered. An aliquot of 100 μL was transferred from filtrate to a new 96-well plate by addition of 900 μL of a mixture of H2O and acetonitrile containing an internal standard (1:1) (10 fold) and 10 μL of the diluted solution was pipetted into a new 96-well plate by addition of 990 μL of a mixture of H2O and acetonitrile containing internal standard (1:1) (1,000 fold). The dilution factor may be changed according to the solubility value and the LC/MS signal response.
To prepare standards for the assay, accurately weigh about 1 mg of the powder of each compound into a glass insert vial, add DMSO into each vial of the Standard Plate with the volume of 1 mL per mg to obtain the 1 mg/mL STD sample. Aliquots of 10 μL were taken from 1 mg/mL STD sample to a new 96-well plate followed by addition of 990 μL of a mixture of H2O and acetonitrile containing internal standard (1:1) to obtain 10 μg/mL STD and then 10 μL aliquots were taken from 10 μg/mL sample to a new 96-well plate followed by addition of 990 μL of a mixture of H2O and acetonitrile containing internal standard (1:1) to obtain 0.1 μg/mL STD. The concentration of the standard sample may be changed according to the LC/MS signal response.
The samples were analyzed and quantified against the standard of known concentration using LC/MS/MS. The solubility of the test compound was calculated as follows: [Sample]=Area Ratio sample×DF sample×[STD]/Area Ratio STD DF means the dilution factor. Any value of the compounds that is not within the specified limits was rejected and the experiment was repeated.

[2] = system: Lgr5+ cells (cochlear stem cells); assay: Lgr5+ assay: expansion of Lgr5-positive cochlear cells in 3D culture; format: cell-based, mouse; settings: for % of Lgr5+ Positive Cells / Potency (Lgr5+ activity): 10 days culture with EGF, bFGF, IGF1, approximate values; for Potency (Lgr5+ activity): effective concentration for Lgr5+ expansion; for Lgr5 GFP+ progenitor cell proliferation (Lgr5 positive cell count) / enrichment of Lgr5 GFP+ cochlear progenitor cells (percent of Lgr5 positive cells): in a background of growth factors, compared to CHIR-99021 and its combinations (figures)
Text: “Stem Cell Proliferation Assay” as used herein is an assay to determine the capacity for agent(s) to induce the creation of stem cells from a starting cell population. In an exemplary Stem Cell Proliferation Assay, the number of cells for an initial cell population is harvested from a Lgr5-GFP mouse such as a B6.129P2-Lgr5tm1(cre/ERT2)Cle/J mouse (also known as Lgr5-EGFP-IRES-creERT2 or Lgr5-GFP mouse, Jackson Lab Stock No: 008875) between the age of 3 to 7 days, by isolating the organ of Corti sensory epithelium and dissociating the epithelium into single cells. Approximately 5000 cells are entrapped in 40 μl of culture substrate (for example, Matrigel (Corning, Growth Factor Reduced)) and placed at the center of wells in a 24-well plate with 500 μl of an appropriate culture media, growth factors and agent being tested. Appropriate culture media and growth factors include Advanced DMEM/F12 with media supplements (1×N2, 1×B27, 2 mM Glutamax, 10 mM HEPES, 1 mM N-acetylcysteine, and 100 U/ml penicillin/100 μg/ml streptomycin) and growth factors (50 ng/ml EGF, 50 ng/ml bFGF, and 50 ng/ml IGF-1) as well as the agent(s) being assessed are added into each well. Cells are cultured for 10 days in a standard cell culture incubator at 37° C. and 5% CO2, with media change every 2 days. The number of Lgr5^+ cells is quantified by counting the number of cells identified as Lgr5+ in an in vitro Lgr5 activity assay (i.e., an assay mearing in vitro Lgr5 activity). The fraction of cells that are Lgr5^+ is quantified by dividing the number of cells identified as Lgr5^+ in a cell population by the total number of cells present in the cell population. The average Lgr5^+ activity of a population is quantified by measuring the average mRNA expression level of Lgr5 of the population normalized using suitable and unregulated references or housekeeping genes (e.g., Hprt). The number of hair cells in a population may be measured by staining with hair cell marker (e.g., MyosinVIIa), or using an endogenous reporter of hair cell genes (e.g., Pou4f3-GFP, Atoh1-nGFP) and analyzing using flow cytometry. The fraction of cells that are hair cells is quantified by dividing the number of cells identified as hair cells in a cell population by the total number of cells present in the cell population. Lgr5 activity can be measured by qPCR.
The compounds of the present disclosure were used in Lgr5-EGFP-IRES-Cre-ER mice (Barker et al., 2007) to analyze the effects of small molecules on cochlear stem cell expansion.
Isolation of stem cells from the inner ear: All animal studies were conducted under an approved institutional protocol according to National Institutes of Health guidelines. For experiments with neonatal mice (postnatal days 1-3), the cochleae were dissected in Hank's Balanced Salt Solution (HBSS) and the organs of Corti were separated from the stria vascularis and the modiolus. The organs of Corti were then treated with Cell Recovery Solution (Corning) for 1 hour to separate cochlear epithelium from the underlying mesenchyme. Epithelia were then collected and treated with TrypLE (Life Technologies) for 15-20 minutes at 37° C. Single cells obtained by mechanical trituration were filtered (40 μm) and suspended in Matrigel® (Corning) for 3D culture.
Cells were cultured in a 1:1 mixture of DMEM and F12, supplemented with Glutamax (GIBCO), N2, B27 (Invitrogen), EGF (50 ng/ml; Chemicon), bFGF (50 ng/ml; Chemicon), IGF1 (50 ng/ml; Chemicon) and the composition provided herein. Medium was changed every other day.
Lgr5-positive cells were quantified after 10 days (D10) in culture in multiple conditions. Cell colonies were dissociated into single cells using TrypLE (Gibco). The cells were then stained with propidium iodide (P1) and were analyzed using a flow cytometer for Lgr5-GFP expression. The number of GFP-positive cells and the percentage of GFP-positive cells were quantified. […]

Compound	solubility thermodynamic at 24 h [1] [µM]	% of Lgr5+ Positive Cells [2] [%]	Potency (Lgr5+ activity) [2] [µM]	Lgr5 GFP+ progenitor cell proliferation (Lgr5 positive cell count) [2]	enrichment of Lgr5 GFP+ cochlear progenitor cells (percent of Lgr5 positive cells) [2]
CCn1cc(C(=O)O)c(=O)c2c(N)c(F)c(N[C@@H]3CC[C@H]3c3ccccc3)cc21 (relative stereo) [Compound I-13]	< 1.2				
CCn1cc(C(=O)O)c(=O)c2c(N)c(F)c(N[C@@H]3C[C@@H]3c3ccccc3)cc21 (relative stereo) [Compound I-23]	< 0.03	14	2.2		
CCn1cc(C(=O)O)c(=O)c2c(N)c(F)c(N3CCC(N[C@@H]4C[C@H]4c4ccccc4)CC3)cc21 (relative stereo) [Compound I-26]		<5	>10		
CCn1cc(C(=O)O)c(=O)c2c(N)c(F)c(N[C@H]3CC[C@H](N[C@@H]4C[C@H]4c4ccccc4)CC3)cc21 (relative stereo) [Compound I-27]	4.7 (≈ 2.25 µg/mL)	26	1.1		
CCn1cc(C(=O)O)c(=O)c2c(N)c(F)c(N[C@H]3CC[C@@H](N[C@@H]4C[C@H]4c4ccccc4)CC3)cc21 (relative stereo) [Compound I-28]	4 (≈ 1.91 µg/mL)	40	8	generates Lgr5 GFP+ progenitor cell proliferation	generates enrichment of Lgr5 GFP+ cochlear progenitor cells
CCn1cc(C(=O)O)c(=O)c2c(N)c(F)c(NCCN[C@@H]3C[C@H]3c3ccccc3)cc21 (relative stereo) [Compound I-29]	1.93 (≈ 0.819 µg/mL)	38	4	generates Lgr5 GFP+ progenitor cell proliferation	generates enrichment of Lgr5 GFP+ cochlear progenitor cells
Nc1c(F)c(N[C@@H]2C[C@H]2c2ccccc2)c(F)c2c1c(=O)c(C(=O)O)cn2C1CC1 (relative stereo) [Compound I-32]	< 0.08				
CCn1cc(C#N)c(=O)c2c(N)c(F)c(N[C@@H]3C[C@H]3c3ccccc3)cc21 (relative stereo) [Compound I-38]	< 0.01	7.5	0.123		
CCn1cc(C(=O)O)c(=O)c2c(N)cc(N[C@@H]3C[C@H]3c3ccccc3)cc21 (relative stereo) [Compound I-59]	< 0.06				
CCn1cc(C(=O)O)c(=O)c2c(N)c(F)c(Nc3ccc([C@@H]4C[C@H]4N)cc3)cc21 (relative stereo) [Compound I-62]	54 (≈ 21.4 µg/mL)				
CCn1cc(C(=O)O)c(=O)c2c(N)c(F)c(NC3CC(N[C@@H]4C[C@H]4c4ccccc4)C3)cc21 (relative stereo) [Compound I-70]	1.6 (≈ 0.721 µg/mL)	30	3.3		
CCn1cc(C(=O)O)c(=O)c2c(N)c(F)c(NCCN[C@@H]3C[C@@]34CCc3ccccc34)cc21 (relative stereo) [Compound I-82]		48	10		
CC(C)n1cc(C(=O)O)c(=O)c2c(N)c(F)c(NCCN[C@@H]3C[C@H]3c3ccccc3)cc21 (relative stereo) [Compound I-88]		32	1.1		
Nc1c(F)c(NCCN[C@@H]2C[C@H]2c2ccccc2)cc2c1c(=O)c(C(=O)O)cn2C1CC1 (relative stereo) [Compound I-89]		35	3.3		
CC(C)n1cc(C(=O)O)c(=O)c2c(N)c(F)c(N[C@]3(C)C[C@@H](N[C@@H]4C[C@H]4c4ccccc4)C3)cc21 (relative stereo) [Compound I-93]		8	>30		
CCn1cc(C(=O)O)c(=O)c2cc(F)c(NC3CCCCC3)cc21 [Compound I-1]		<5	>10		
CCn1cc(C(=O)O)c(=O)c2c(N)c(F)c(NC3CCc4ccccc43)cc21 (stereo not drawn) [Compound I-10]		1	>10		
CCn1cc(C(=O)O)c(=O)c2c(N)c(F)c(N[C@@H]3C[C@H]3c3ccccc3)cc21 [Compound I-21]		21	3.3		
CCn1cc(C(=O)O)c(=O)c2c(N)c(F)c(N[C@H]3C[C@@H]3c3ccccc3)cc21 [Compound I-22]		16	1.1		
CCn1cc(C(=O)O)c(=O)c2c(N)cc(NCCc3ccccc3)c(F)c21 [Compound I-65]	0.11 (≈ 0.0406 µg/mL)				
CCn1cc(C(N)=O)c(=O)c2c(N)c(F)c(NCCc3ccccc3)cc21 [Compound I-66]	0.06 (≈ 0.0221 µg/mL)				
CCn1cc(C#N)c(=O)c2c(N)c(F)c(NCCc3ccccc3)cc21 [Compound I-67]	0.23 (≈ 0.0806 µg/mL)				
CCn1cc(-c2nnn[nH]2)c(=O)c2c(N)c(F)c(NCCc3ccccc3)cc21 [Compound I-68]	0.03 (≈ 0.0118 µg/mL)				
